Laboratory results as given in US9790218B2, “Small molecule activators of calcium-activated chloride channels and methods of use” (The Regents of the University of California, priority 2011, dated 2017).

What was measured:
[1] = tested on: non-CF human tracheal gland (HTG) serous cells; assay: Short-circuit current in human tracheal gland (HTG) serous cells; format: cell-based; conditions: Eact 10 μM, UTP 100 μM
Procedure: FIG. 5A-B. Airway epithelial chloride secretion. FIG. 5A. Short-circuit current in CF HBE cells. Eact and UTP (100 μM) were added in control (left) and IL-4 (10 ng/ml, 24 h, middle) treated CF HBE cells. (right) Summary of Eact-induced, T16Ainh-A01-sensitive peak current (mean±S.E., n=6-8, * P<0.05). ENaC was inhibited by 10 μM amiloride. FIG. 5B. Eact (10 μM) and UTP (100 μM) induced CaCC Cl^− current measured in primary cultures of non-CF human tracheal gland (HTG) serous cells. (left and gmiddle) TMEM16A, CFTR and ENaC were inhibited by pretreatment with T16Ainh-A01, CFTRinh-172 and amiloride, respectively. Inset: TMEM16A immunoblot in whole cell homogenates of CF HBE and HTG cells. (right) Summary of UTP and Eact-induced peak current in the presence and absence of T16Ainh-A01 (mean±S.E., n=3, * P<0.05). […]
Snapwell inserts containing TMEM16A-expressing FRT, HBE, CF HBE or HTG cells were mounted in Ussing chambers (Physiologic Instruments, San Diego, Calif.). […] Apical membrane current (for FRT cells) and short-circuit current were measured using an EVC4000 Multi-Channel V/I Clamp (World Precision Instruments, Sarasota, Fla.) and recorded using PowerLab/8sp (AD Instruments, Castle Hill, Australia). […]

[2] = tested on: CF human bronchial epithelial (CF HBE) cells; assay: Short-circuit current in CF HBE cells; format: cell-based; conditions: no IL-4; UTP 100 μM
Procedure: FIG. 5A-B. Airway epithelial chloride secretion. FIG. 5A. Short-circuit current in CF HBE cells. Eact and UTP (100 μM) were added in control (left) and IL-4 (10 ng/ml, 24 h, middle) treated CF HBE cells. (right) Summary of Eact-induced, T16Ainh-A01-sensitive peak current (mean±S.E., n=6-8, * P<0.05). ENaC was inhibited by 10 μM amiloride. FIG. 5B. Eact (10 μM) and UTP (100 μM) induced CaCC Cl^− current measured in primary cultures of non-CF human tracheal gland (HTG) serous cells. (left and gmiddle) TMEM16A, CFTR and ENaC were inhibited by pretreatment with T16Ainh-A01, CFTRinh-172 and amiloride, respectively. Inset: TMEM16A immunoblot in whole cell homogenates of CF HBE and HTG cells. (right) Summary of UTP and Eact-induced peak current in the presence and absence of T16Ainh-A01 (mean±S.E., n=3, * P<0.05).
Tracheal and bronchial tissues were obtained from non-CF and CF patients following lung transplantation or from postmortem examinations performed within 24 h after death. […]
Snapwell inserts containing TMEM16A-expressing FRT, HBE, CF HBE or HTG cells were mounted in Ussing chambers (Physiologic Instruments, San Diego, Calif.). […] Apical membrane current (for FRT cells) and short-circuit current were measured using an EVC4000 Multi-Channel V/I Clamp (World Precision Instruments, Sarasota, Fla.) and recorded using PowerLab/8sp (AD Instruments, Castle Hill, Australia).

[3] = tested on: human bronchi submucosal glands; assay: Airway submucosal gland fluid secretion in human bronchi; conditions: serosal application; 300 nM carbachol, 20 μM Eact
Procedure: FIG. 6A-C. Airway submucosal gland fluid secretion in human bronchi. FIG. 6A. TMEM16A immunohistochemistry in CF (left) and non-CF (right) human bronchi showing apical membrane expression in serous gland epithelial cells (arrows). Scale bar: 20 μm. FIG. 6B. Mucous (fluid) secretion in human bronchi. (top) Images of mucus bubbles formed under oil in response to basolateral application of 300 nM carbachol (CCh) and 20 μM Eact. TMEM16A was inhibited by 30 μM T16Ainh-A01. Individual fluid bubbles marked with arrowheads. Scale bar: 0.5 mm. (bottom) CCh and Eact-induced secretion rates. Where indicated, tissues were pre-treated with T16Ainh-A01 (30 μM). Each point is the average of measurements made from 20 glands (mean±S.E. * P<0.05). FIG. 6C. Summary of human gland fluid secretion rates measured at 20 min after addition of 20 μM Eact, and 30 min after application of 300 nM carbachol (CCh) and 10 μM forskolin (20-66 glands from 3 tracheas and 4 bronchus). In CF-bronchi, 6 glands from one donor were stimulated by Eact. […]
Similar staining was found in non-CF and CF human bronchi. Fluid secretion was measured in individual submucosal glands from the increasing size of mucus (fluid) bubbles in which airway fragments were mounted in a 37° C. perfusion chamber and the mucosal solution was covered with oil.

[4] = tested on: mouse ileal smooth muscle; assay: Intestinal smooth muscle contraction, ex vivo mouse ileal segments; conditions: carbachol 1 μM
Procedure: FIG. 8A-C. Intestinal smooth muscle contraction. FIG. 8A. Representative traces from mouse ileal segments showing effects of T16Ainh-A01 (10 μM), carbachol (CCh, 1 μM) and Eact (10 μM). FIG. 8B. Effect of CCh (1 μM) and Eact (10 μM) following atropine (1 μM). FIG. 8C. Summary of contraction frequency (left), and resting and maximum tone (right) (mean±S.E., n=4-7, * P<0.05).
Wild type CD1 mice (age 8-10 weeks) were killed by avertin overdose (200 mg/kg). The ileum removed and washed with ice-cold HCO3^−-buffered solution. The ends of the ileal segments were tied with silk thread and connected to a force transducer. Beal segments were equilibrated for 60 min with a resting force of ˜1 mN, with changes of the bathing solution every 15 min. Tension was monitored continuously with a fixed-range precision force transducer (TSD, 125 C; Biopac, Goleta, Calif.) connected to a differential amplifier (DA 100B; Biopac). Data were recorded using MP100, Biopac digital acquisition system and analyzed using Acknowledge 3.5.7 software.
TMEM16A in expressed in the interstitial cells of Cajal, the pacemaker cells that control smooth muscle contraction dynamics in stomach and intestine (Huang et al., supra; Gomez-Pinilla et al. (2009) Am. J. Physiol. Gastrointest. Liver Physiol. 296, G1370-1381). The effect of Eact on mouse ileal smooth muscle contraction was investigated using an ex vivo intestinal preparation. […] Without wishing to be bound by theory, the constitutive TMEM16A activity in this ex vivo preparation could obscure Eact activity. To reveal Eact effects, atropine was first added to inhibit basal contractions. […] FIG. 8C summarizes data on contraction frequency, resting tone and maximal tone.

Structure (SMILES) | Cl^− current in HTG serous cells [1] | Cl^− current in untreated CF bronchial epithelial cells [2] | gland fluid secretion rate [3] | contraction frequency [4] | resting and maximum tone ([4]; Eact 10 μM, no atropine)
O=c1ccn([C@@H]2O[C@H](COP(=O)(O)OP(=O)(O)OP(=O)(O)O)[C@@H](O)[C@H]2O)c(=O)[nH]1 [UTP, reference compound] | increased Cl^− current | produced a large Cl^− current | – | – | –
C[N+](C)(C)CCOC(N)=O [carbachol] | – | – | significantly increased secretion | without change in contraction frequency | increased
